PubChem BioAssay (NCI)
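Test compounds were applied to cells in 96-well plates for 48 hours at 5 doses. TGI: concentration producing complete growth inhibition.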

Experiments:
Experiment in all cases: DTP human tumour cell line panel, 48 h
786-0 renal = test system: 786-0 renal
A498 renal = test system: A498 renal
A549 NSCLC = test system: A549 NSCLC
ACHN renal = test system: ACHN renal
BT-549 breast = test system: BT-549 breast
CAKI-1 renal = test system: CAKI-1 renal
CCRF-CEM leukemia = test system: CCRF-CEM leukemia
COLO 205 colon = test system: COLO 205 colon
DU-145 prostate = test system: DU-145 prostate
HCC-2998 colon = test system: HCC-2998 colon
HCT-116 colon = test system: HCT-116 colon
HCT-15 colon = test system: HCT-15 colon
HL-60(TB) leukemia = test system: HL-60(TB) leukemia
HOP-92 NSCLC = test system: HOP-92 NSCLC
HT29 colon = test system: HT29 colon
IGROV1 ovarian = test system: IGROV1 ovarian
K-562 leukemia = test system: K-562 leukemia
KM12 colon = test system: KM12 colon
M14 melanoma = test system: M14 melanoma
MALME-3M melanoma = test system: MALME-3M melanoma
MCF7 breast = test system: MCF7 breast
MDA-MB-231 breast = test system: MDA-MB-231 breast
MDA-MB-435 = test system: MDA-MB-435
MDA-N = test system: MDA-N
MOLT-4 leukemia = test system: MOLT-4 leukemia
NCI-H226 lung = test system: NCI-H226 lung
NCI-H23 lung = test system: NCI-H23 lung
NCI-H460 lung = test system: NCI-H460 lung
NCI-H522 lung = test system: NCI-H522 lung
NCI/ADR-RES ovarian = test system: NCI/ADR-RES ovarian
OVCAR-3 ovarian = test system: OVCAR-3 ovarian
OVCAR-4 ovarian = test system: OVCAR-4 ovarian
OVCAR-5 ovarian = test system: OVCAR-5 ovarian
OVCAR-8 ovarian = test system: OVCAR-8 ovarian
PC-3 prostate = test system: PC-3 prostate
RPMI-8226 leukemia = test system: RPMI-8226 leukemia
RXF 393 renal = test system: RXF 393 renal
SF-268 CNS = test system: SF-268 CNS
SF-295 CNS = test system: SF-295 CNS
SF-539 CNS = test system: SF-539 CNS
SK-MEL-2 melanoma = test system: SK-MEL-2 melanoma
SK-MEL-28 melanoma = test system: SK-MEL-28 melanoma
SK-MEL-5 melanoma = test system: SK-MEL-5 melanoma
SN12C renal = test system: SN12C renal
SNB-19 CNS = test system: SNB-19 CNS
SNB-75 CNS = test system: SNB-75 CNS
SR leukemia = test system: SR leukemia
SW-620 colon = test system: SW-620 colon
T-47D breast = test system: T-47D breast
TK-10 renal = test system: TK-10 renal
U251 CNS = test system: U251 CNS
UACC-257 melanoma = test system: UACC-257 melanoma
UACC-62 melanoma = test system: UACC-62 melanoma
UO-31 renal = test system: UO-31 renal
EKVX NSCLC = test system: EKVX NSCLC
HOP-62 NSCLC = test system: HOP-62 NSCLC
HS 578T breast = test system: HS 578T breast
LOX IMVI melanoma = test system: LOX IMVI melanoma
SK-OV-3 ovarian = test system: SK-OV-3 ovarian

Measured: TGI

OCC1CCCC1O (configuration not stated)
> 100 µM: 786-0 renal | A498 renal | A549 NSCLC | ACHN renal | BT-549 breast | CAKI-1 renal | CCRF-CEM leukemia | COLO 205 colon | DU-145 prostate | HCC-2998 colon | HCT-116 colon | HCT-15 colon | HL-60(TB) leukemia | HOP-92 NSCLC | HT29 colon | IGROV1 ovarian | K-562 leukemia | KM12 colon | M14 melanoma | MALME-3M melanoma | MCF7 breast | MDA-MB-231 breast | MDA-MB-435 | MDA-N | MOLT-4 leukemia | NCI-H226 lung | NCI-H23 lung | NCI-H460 lung | NCI-H522 lung | NCI/ADR-RES ovarian | OVCAR-3 ovarian | OVCAR-4 ovarian | OVCAR-5 ovarian | OVCAR-8 ovarian | PC-3 prostate | RPMI-8226 leukemia | RXF 393 renal | SF-268 CNS | SF-295 CNS | SF-539 CNS | SK-MEL-2 melanoma | SK-MEL-28 melanoma | SK-MEL-5 melanoma | SN12C renal | SNB-19 CNS | SNB-75 CNS | SR leukemia | SW-620 colon | T-47D breast | TK-10 renal | U251 CNS | UACC-257 melanoma | UACC-62 melanoma | UO-31 renal

O=[N+]([O-])C(/C=C(\Cl)[N+](=O)[O-])=C(N1CCCCC1)N1CCCCC1
75.7 µM: UO-31 renal
61.1 µM: IGROV1 ovarian
54 µM: A549 NSCLC
41.7 µM: HL-60(TB) leukemia
46.5 µM: SK-MEL-5 melanoma
66.9 µM: K-562 leukemia
60.8 µM: UACC-62 melanoma
62.4 µM: HCT-116 colon
18.9 µM: MCF7 breast
55.5 µM: COLO 205 colon
69.2 µM: UACC-257 melanoma
21.4 µM: MALME-3M melanoma
59 µM: CCRF-CEM leukemia
57 µM: M14 melanoma
> 100 µM: 786-0 renal | ACHN renal | CAKI-1 renal | DU-145 prostate | EKVX NSCLC | HCC-2998 colon | HOP-62 NSCLC | HOP-92 NSCLC | HS 578T breast | HT29 colon | KM12 colon | LOX IMVI melanoma | MDA-MB-231 breast | MOLT-4 leukemia | NCI-H226 lung | NCI-H23 lung | NCI-H460 lung | NCI-H522 lung | NCI/ADR-RES ovarian | OVCAR-4 ovarian | OVCAR-5 ovarian | OVCAR-8 ovarian | PC-3 prostate | RPMI-8226 leukemia | RXF 393 renal | SF-268 CNS | SF-295 CNS | SK-MEL-2 melanoma | SK-MEL-28 melanoma | SK-OV-3 ovarian | SN12C renal | SNB-19 CNS | T-47D breast | TK-10 renal | U251 CNS
93.3 µM: A498 renal
51.1 µM: SR leukemia
54.7 µM: OVCAR-3 ovarian
30.6 µM: MDA-MB-435
68 µM: HCT-15 colon
56.7 µM: SF-539 CNS
41 µM: MDA-N

CC(=Nc1ccc(Cl)c(Cl)c1)c1ccncc1
> 100 µM: 786-0 renal | BT-549 breast | CCRF-CEM leukemia | COLO 205 colon | HCT-116 colon | HOP-62 NSCLC | HOP-92 NSCLC | HS 578T breast | HT29 colon | K-562 leukemia | KM12 colon | LOX IMVI melanoma | M14 melanoma | MDA-MB-231 breast | MDA-N | MOLT-4 leukemia | NCI-H226 lung | NCI-H23 lung | NCI-H460 lung | NCI-H522 lung | NCI/ADR-RES ovarian | OVCAR-3 ovarian | OVCAR-4 ovarian | OVCAR-8 ovarian | PC-3 prostate | RXF 393 renal | SF-268 CNS | SF-295 CNS | SK-MEL-28 melanoma | SK-OV-3 ovarian | SN12C renal | SNB-19 CNS | SNB-75 CNS | SW-620 colon | TK-10 renal | U251 CNS | UACC-62 melanoma
